Data reported in patent US11857601B2, “Pharmaceutical composition for cancer treatment comprising fusion protein including IL-2 protein and CD80 protein and anticancer drug” (GI INNOVATION, INC., priority 2020, dated 2024).

What was measured:
TC1 cells = assay: mGI-101, Cisplatin, Pemetrexed and anti-PD-1 antibody, 1st line and maintenance therapy, TC1 tumor model; assay type: in vivo, C57BL/6 mice; conditions: mGI-101 3 mg/kg i.p. QW; compared with anticancer chemotherapeutic agent and anti-PD-1 antibody
Procedure: Mouse-derived lung cancer cell line, TC1, was purchased from ATCC (USA) and used for the test.
TC1 cells were cultured in RPMI1640 medium (Gibco) containing 10% FBS (Gibco) and 1% antibiotic/antifungal agent (Gibco). The cultured cells were harvested using trypsin (Gibco), and then 1×10^6 of TC1 cells were subcutaneously injected into the right flank of C57BL/6 female mice (7-week-old) in order to establish an allotransplanted tumor model.
The mice were randomly assigned based on tumor volume (˜100 mm^3), each group including 13 to 19 mice. The tumor grafts were identified about day 2 after cell inoculation.
The test was divided into the 1st line treatment and the anticancer maintenance therapy. […]
Clinical symptoms such as a disease and a behavioral change were observed once a day during the test period, and deceased animals were identified, and the mice were sacrificed when the tumor size reached a size of 4,000 mm^3. The size of the TC1 solid cancer was measured using a tumor 3D scanner (TM900, Peria, Belgium). […] The anti-tumor efficacy was evaluated as compared with the mouse IgG4 control. […]

IL-2Rα = biological target: T1, IL-2Rα (Homo sapiens, UniProt P01589); assay: Binding to IL-2Rα (Octet, AR2G biosensor); conditions: as compared with GI101w and Proleukin
T1 construct: purchased Acro ILA-H52H9
T1 sequence (P01589 22-272): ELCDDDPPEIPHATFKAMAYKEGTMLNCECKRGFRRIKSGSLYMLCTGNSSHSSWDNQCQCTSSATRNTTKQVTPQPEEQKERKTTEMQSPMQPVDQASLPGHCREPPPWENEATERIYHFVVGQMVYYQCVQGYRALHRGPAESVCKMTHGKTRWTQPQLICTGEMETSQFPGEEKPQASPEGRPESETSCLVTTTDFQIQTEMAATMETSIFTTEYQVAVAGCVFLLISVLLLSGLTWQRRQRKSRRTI
Procedure: The binding ability for IL-2Rα was measured using the AR2G biosensor, and the binding ability for IL-2Rβ was measured using the Ni-NTA biosensors (Nickel charged Tris-NTA, Ni-NTA Biosensors, ForteBio, 18-5101).
A ligand (IL-2Rα-His Tag, Acro, Cat: ILA-H52H9) to be attached to the AR2G biosensor was diluted with 10 mM acetate buffer (pH 5, AR2G reagent Kit, ForteBio, Cat: 18-5095) to a concentration of 5 μg/ml. The AR2G biosensor was activated with a buffer prepared by mixing 400 mM EDC and 100 mM sulfo-NHS, and then the diluted ligand was loaded on the AR2G biosensor for 300 seconds and fixed.
Thereafter, GI101, GI101w, or Proleukin (Novartis, hIL-2), at various concentrations, to be attached to the ligand was loaded thereon for 300 seconds. Then, binding thereof was measured and dissociation thereof was also measured for 300 seconds. Binding kinetics analysis was performed using Octet Data Analysis HT software ver. 10 provided by Pall Corporation. The results are illustrated in FIGS. 22 to 24.

MDA-MB-231 cells = assay: GI101 and Keytruda in humanized mice xenotransplanted with MDA-MB-231; assay type: in vivo, human
Procedure: Fetal bovine serum (FBS, 16000-044, Thermofisher scientific, USA), penicillin-streptomycin; 10,000 units/ml penicillin and 10,000 μg/ml streptomycin (15140122, Thermofisher scientific, USA); and RPMI1640 (A1049101, Thermofisher scientific, USA) per 100 ml were mixed and used.
The cells were suspended using Trypsin-EDTA (Cat. 25200-072, Thermofisher scientific, USA). The suspended cells were collected by centrifugation (125×g, 5 minutes) using a centrifuge, transferred to a new medium and a new flask, and passage cultured. The cultured cells were put to a centrifugation tube on the day of cell line transplantation and then collected. […] 8-week-old female NSGb2m (NOD.Cg-B2m^tm1UncPrkdc^scidIl2rg^tm1Wjl/SzJ) mice were purchased from Joongang Bio (Korea) and used for the test. The body weight was measured the next day after the end of the quarantine and acclimation period, and then the human-derived PBMC cell suspension (5×10^6 cells/0.2 ml) prepared for healthy animals was filled into a disposable syringe and administered to the caudal vein of the animals. General symptoms were observed once a day after cell transplantation.
A certain period of time after the cell transplantation, the tumor volume was measured for animals with no abnormalities in the health condition of the animals, and 32 subjects were selected so that the average of each group reached 40 to 80 mm^3. The selected animals were grouped into a total of 4 groups as evenly as possible based on tumor volume and body weight, each group including 8 animals.
General symptoms such as appearance, behavior, and excrement were observed once a day during the observation period, and deceased animals were identified. Body weight was measured on the day of cell line transplantation, twice a week, and on the day of animal sacrifice. The major axis (maximum length, L) and minor axis (perpendicular width, W) of the tumor were measured using a caliper (Digital caliper, mitutoyo, Japan) three times a week during the observation period, and the tumor volume (TV) was calculated by substituting them into the following equations.
The tumor volume before administration of each subject was set as the value measured at the time of grouping.

[1] = test system: NCl-H292 cancer cell line with human PBMCs; assay: T cell activity inhibition by cancer cells expressing PD-L1 and CTLA-4 (IFN-γ ELISA); assay type: cell-based; conditions: 50 nM, 3 days
Procedure: NCl-H292 cancer cell line expressing PD-L1 and CTLA-4 was cultured for 3 hours in a culture medium containing 10 μg/ml Mitomycin C (Sigma), and then Mitomycin C was removed by washing with the culture medium. Thereafter, 5×10^4 cells of the Mitomycin C-treated NCl-H292 cancer cell line were incubated with 1×10^5 cells of human PBMCs in a 96-well microplate. Here, treatment with 5 μg/ml of PHA (Sigma) was performed for T cell activity. […] After 3 days, the supernatant of the cell culture was collected and the amount of IFN-γ was quantified using an ELISA kit (Biolegend).
As a positive control, human PBMCs stimulated with PHA in the absence of the Mitomycin C-treated NCl-H292 cancer cell line were used; and as a negative control, human PBMCs stimulated with PHA in the presence of the Mitomycin C-treated NCl-H292 cancer cell line were used. An experimental method using the IFN-7 ELISA kit was carried out in the same manner as in Experimental Example 9.3.

[2] = day 42 vs day 21 after tumor transplantation, 8 animals per group

Row | binding ability for the IL-2 receptor IL-2Rα (IL-2Rα) | Substance | anticancer effect, anticancer maintenance therapy (TC1 cells) | tumor growth (MDA-MB-231 cells; GI101 6 mg/kg, Keytruda 5 mg/kg, 4 administrations, compared with the control (hIgG4)) | number of mice with tumor growth inhibition rate of 30% or more (MDA-MB-231 cells; [2]) [mice] | number of mice with tumor growth inhibition rate of 50% or more (MDA-MB-231 cells; [2]) [mice] | number of mice with tumor growth inhibition rate of 80% or more (MDA-MB-231 cells; [2]) [mice] | immune response inhibited by the cancer cell line overexpressing PD-L1 (IFN-γ) [1] | signaling of CTLA-4 expressed on effector T cells [1]
1 |  | mGI101: fusion protein: mouse CD80, Ig hinge, Fc domain, linker, IL-2 variant (2M) (R38A, F42A); SEQ ID NO: 15 | as much anticancer effect as the group having received an anticancer chemotherapeutic agent and an anti-PD-1 antibody |  |  |  |  |  | 
2 | low binding ability | GI101: fusion protein: human CD80 fragment, Ig hinge, Fc domain, linker, IL-2 variant (2M) (R38A, F42A); SEQ ID NO: 9 |  | tumor growth inhibition | 5 | 5 | 2 | effectively activated | inhibited
